{"source": "patent US12570752B2", "about": "“Combination therapy with an anti BCMA antibody and a gamma secretase inhibitor” (priority 2019, dated 2026)", "key": {"[1]": {"test_system": "multiple myeloma cell line L363", "assay": "L363 cell viability, nirogacestat pre-treatment then belantamab mafodotin or controls", "assay_type": "cell-based", "conditions": "nirogacestat pre-treatment 24 hours, then treatment for additional 72 hours"}, "[2]": {"conditions": "cited from earlier work"}, "[3]": {"conditions": "cited from earlier work", "remark": "listed apart in the source"}}}
{"molecule": "CCC[C@H](N[C@H]1CCc2cc(F)cc(F)c2C1)C(=O)Nc1cn(C(C)(C)CNCC(C)(C)C)cn1", "note": "[nirogacestat, (S)-2-(((S)-6,8-difluoro-1,2,3,4-tetrahydronaphthalen-2-yl)amino)-N-(1-(2-methyl-1-(neopentylamino)propan-2-yl)-1H-imidazol-4-yl)pentanamide]", "values": [{"measurement": "effect on cell viability", "setting": "[1]", "value": "no effect"}, {"measurement": "incidence of dose-limiting diarrhea and elevated liver enzymes", "setting": "[2]; compared with RO4929097 or MK-0752 (Messersmith, 2015)", "value": "does not appear to be as high"}, {"measurement": "safety profile versus other gamma-secretase inhibitors", "setting": "[2]; in vivo", "value": "better safety profile"}, {"measurement": "incidence of secondary primary malignancies (SPM) or treatment-emergent infections", "setting": "[2]; unlike e.g. semagacestat (Messersmith, 2015; Henley, 2014)", "value": "there does not seem to be an increased incidence"}, {"measurement": "time to pharmacodynamically active plasma levels", "setting": "[3]; after treatment initiation", "value": "< 48", "unit": "h"}, {"measurement": "exposure versus dose", "setting": "[3]; between 20 and 330 mg BID", "value": "dose-proportional"}, {"measurement": "time to steady-state", "setting": "[3]; repeated BID administration", "value": "≤ 8", "unit": "days"}]}
{"molecule": "Belantamab", "values": [{"measurement": "effect on cell viability", "setting": "[1]", "value": "no effect"}]}
